According to US4801613A, “Bradykinin antagonist peptides” (Nova Technology Limited Partnership, priority 1987, dated 1989):
Where two headings read alike, the source gives them in different places. Non-standard residues stand in square brackets, D forms with d. Residues, ends and D or L forms follow the SMILES beside them. No end group written: not given here. Hyp = O=C(O)[C@@H]1C[C@@H](O)CN1; 2Thi = N[C@@H](Cc1cccs1)C(=O)O; d2Thi = N[C@H](Cc1cccs1)C(=O)O

Experiments:
isolated rat uterus = format: cell-based
Description: (§1) The bradykinin antagonists were assayed on isolated rat uterus in natural or induced estrus and on guinea pig ileum, according to the commonly accepted assay methods for bradykinin and related kinins as described by Trautschold (Handbook of Expt. Pharmacol. Vol. 25, Springer Verlag, pp 53-55, 1970) for inhibition of the myotropic activity of bradykinin. The inhibition potencies, as determined according to the commonly accepted manner described by Schild for antagonists of biologically active compounds (Br. J. Pharmacol. 2:189, 1947), are determined on isolated rat uterus (RUT) and isolated guinea pig ileum (GPI). In the assays, a dose-response curve is determined for the reference substance bradykinin. The dose of bradykinin which produced a half maximal contraction of tissue is the ED50 dose. An amount of bradykinin equivalent to twice the ED50 dose is administered to the tissue 30 seconds after the start of incubation of the tissue with a dose of antagonist. Doses of antagonist are increased in this protocol until pre-incubation with a dose of antagonist reduces the contraction in response to the double ED50 dose of bradykinin to response of a single ED50 dose of bradykinin. The pA2 value represents the negative logarithm of the molar concentration of antagonist necessary to reduce the response of a double ED50 dose of bradykinin to that of an ED50 dose. One unit of pA2 value represents an order of magnitude change in potency. For comparison, the negative log of the dose of BK, the dose which causes half maximal contraction of the tissues, is commonly known as the pD2 value. The pD2 value for bradykinin is 7.9 on the rat uterus and 7.4 on the guinea pig ileum.

[1] = system: isolated guinea pig ileum; format: cell-based
Description: as §1
In each case, as shown, the BK-related antagonists inhibited contractions produced by BK-related agonists, but had no effect on the non-kinin myotropic peptide substances. The inhibition potencies are listed as pA2 values as described above.

[2] = isolated rat uterus, vs double ED50 dose of bradykinin, Schild
[3] = isolated guinea pig ileum, vs double ED50 dose of bradykinin, Schild

| Molecule | pA2/RUT (isolated rat uterus) | pA2/GPI [1] | other results |
| --- | --- | --- | --- |
| N=C(N)NCCC[C@H](NC(=O)[C@H](Cc1cccs1)NC(=O)[C@@H](Cc1ccccc1)NC(=O)[C@H](CO)NC(=O)[C@H](Cc1cccs1)NC(=O)CNC(=O)[C@@H]1C[C@@H](O)CN1C(=O)[C@@H]1CCCN1C(=O)[C@H](CCCNC(=N)N)NC(=O)[C@H](CCCCN)NC(=O)[C@@H](N)CCCCN)C(=O)O [Example 77, Lys-Lys-Arg-Pro-Hyp-Gly-Thi-Ser-DPhe-Thi-Arg] (H-KKRP[Hyp]G[2Thi]S[dF][2Thi]R-OH) | 6.7 | – | – |
| N=C(N)NCCC[C@H](NC(=O)[C@H](Cc1ccccc1)NC(=O)[C@@H](Cc1ccccc1)NC(=O)[C@H](CO)NC(=O)[C@H](Cc1ccccc1)NC(=O)CNC(=O)[C@@H]1CCCN1C(=O)[C@@H]1C[C@@H](O)CN1C(=O)[C@H](CCCNC(=N)N)NC(=O)[C@H](CCCCN)NC(=O)[C@@H](N)CCCCN)C(=O)O [Example 72, Lys-Lys-Arg-Hyp-Pro-Gly-Phe-Ser-DPhe-Phe-Arg] (H-KKR[Hyp]PGFS[dF]FR-OH) | 5.6 | – | – |
| N=C(N)NCCC[C@@H](N)C(=O)N[C@@H](CCCNC(=N)N)C(=O)N1C[C@H](O)C[C@H]1C(=O)N1C[C@H](O)C[C@H]1C(=O)NCC(=O)N[C@@H](Cc1cccs1)C(=O)N[C@@H](CO)C(=O)N[C@H](Cc1ccccc1)C(=O)N[C@@H](Cc1cccs1)C(=O)N[C@@H](CCCNC(=N)N)C(=O)O [Example 65, DArg-Arg-Hyp-Hyp-Gly-Thi-Ser-DPhe-Thi-Arg] (H-[dR]R[Hyp][Hyp]G[2Thi]S[dF][2Thi]R-OH) | 7.1 | – | – |
| Arg-Hyp-Hyp-Gly-Thi-DPhe-CDF-Thi-Arg [Example 23] | – | – | pA2/RUT (isolated rat uterus; [2]): 6.5 |
| N=C(N)NCCC[C@H](NC(=O)[C@H](Cc1cccs1)NC(=O)[C@@H](Cc1cccs1)NC(=O)[C@H](CO)NC(=O)[C@H](Cc1cccs1)NC(=O)CNC(=O)[C@@H]1CCCN1C(=O)[C@@H]1CCCN1C(=O)[C@@H](N)CCCNC(=N)N)C(=O)O [Example 7, Arg-Pro-Pro-Gly-Thi-Ser-DThi-Thi-Arg] (H-RPPG[2Thi]S[d2Thi][2Thi]R-OH) | 4.2 | 5.8 | – |
| N=C(N)NCCC[C@H](NC(=O)[C@H](Cc1ccccc1)NC(=O)[C@@H](Cc1ccccc1)NC(=O)[C@H](CO)NC(=O)[C@H](Cc1ccccc1)NC(=O)CNC(=O)[C@@H]1CCCN1C(=O)[C@@H]1CCCN1C(=O)[C@H](CCCNC(=N)N)NC(=O)[C@H](CCCCN)NC(=O)[C@@H](N)CCCCN)C(=O)O [Example 13, Lys-Lys-Arg-Pro-Pro-Gly-Phe-Ser-DPhe-Phe-Arg] (H-KKRPPGFS[dF]FR-OH) | – | 5.1 | – |
| N=C(N)NCCC[C@H](NC(=O)[C@H](Cc1ccccc1)NC(=O)[C@@H](Cc1ccccc1)NC(=O)[C@@H](Cc1ccccc1)NC(=O)[C@H](Cc1ccccc1)NC(=O)CNC(=O)[C@@H]1CCCN1C(=O)[C@@H]1CCCN1C(=O)[C@@H](N)CCCNC(=N)N)C(=O)O [Example 4, Arg-Pro-Pro-Gly-Phe-DPhe-DPhe-Phe-Arg] (H-RPPGF[dF][dF]FR-OH) | – | 5.2 | – |
| N=C(N)NCCC[C@H](NC(=O)[C@H](Cc1ccccc1)NC(=O)[C@@H](Cc1cccs1)NC(=O)[C@H](CO)NC(=O)[C@H](Cc1ccccc1)NC(=O)CNC(=O)[C@@H]1CCCN1C(=O)[C@@H]1CCCN1C(=O)[C@@H](N)CCCNC(=N)N)C(=O)O [Example 2, Arg-Pro-Pro-Gly-Phe-Ser-DThi-Phe-Arg] (H-RPPGFS[d2Thi]FR-OH) | – | 4.6 | – |
| N=C(N)NCCC[C@H](NC(=O)[C@H](Cc1cccs1)NC(=O)[C@@H](Cc1ccccc1)NC(=O)[C@H](CO)NC(=O)[C@H](Cc1cccs1)NC(=O)CNC(=O)[C@@H]1C[C@@H](O)CN1C(=O)[C@@H]1CCCN1C(=O)[C@@H](N)CCCNC(=N)N)C(=O)O [Example 20, Arg-Pro-Hyp-Gly-Thi-Ser-DPhe-Thi-Arg] (H-RP[Hyp]G[2Thi]S[dF][2Thi]R-OH) | 7.0 | 4.7 | – |
| N=C(N)NCCC[C@@H](N)C(=O)N[C@@H](CCCNC(=N)N)C(=O)N1C[C@H](O)C[C@H]1C(=O)N1CCC[C@H]1C(=O)NCC(=O)N[C@@H](Cc1cccs1)C(=O)N[C@@H](CO)C(=O)N[C@H](Cc1ccccc1)C(=O)N[C@@H](Cc1cccs1)C(=O)N[C@@H](CCCNC(=N)N)C(=O)O [Example 64, DArg-Arg-Hyp-Pro-Gly-Thi-Ser-DPhe-Thi-Arg] (H-[dR]R[Hyp]PG[2Thi]S[dF][2Thi]R-OH) | 5.7 | – | – |
| KKR[Hyp]G[2Thi]S[dF][2Thi]R [Example 19] | – | – | pA2/RUT (isolated rat uterus; [2]): 5.8 |
| N=C(N)NCCC[C@@H](N)C(=O)N[C@@H](CCCNC(=N)N)C(=O)N1CCC[C@H]1C(=O)N1C[C@H](O)C[C@H]1C(=O)NCC(=O)N[C@@H](Cc1cccs1)C(=O)N[C@@H](CO)C(=O)N[C@H](Cc1ccccc1)C(=O)N[C@@H](Cc1cccs1)C(=O)N[C@@H](CCCNC(=N)N)C(=O)O [Example 21, DArg-Arg-Pro-Hyp-Gly-Thi-Ser-DPhe-Thi-Arg] (H-[dR]RP[Hyp]G[2Thi]S[dF][2Thi]R-OH) | 7.2 | – | – |
| N=C(N)NCCC[C@@H](N)C(=O)N[C@@H](CCCNC(=N)N)C(=O)N1CCC[C@H]1C(=O)N1CCC[C@@H]1C(=O)NCC(=O)N[C@@H](Cc1cccs1)C(=O)N[C@@H](CO)C(=O)N[C@H](Cc1ccccc1)C(=O)N[C@@H](Cc1cccs1)C(=O)N[C@@H](CCCNC(=N)N)C(=O)O [Example 16, DArg-Arg-Pro-DPro-Gly-Thi-Ser-DPhe-Thi-Arg] (H-[dR]RP[dP]G[2Thi]S[dF][2Thi]R-OH) | 5.2 | – | – |
| N=C(N)NCCC[C@H](NC(=O)[C@H](Cc1cccs1)NC(=O)[C@@H](Cc1ccccc1)NC(=O)[C@H](CO)NC(=O)[C@H](Cc1cccs1)NC(=O)CNC(=O)[C@@H]1CCCN1C(=O)[C@@H]1C[C@@H](O)CN1C(=O)[C@@H](N)CCCNC(=N)N)C(=O)O [Example 18, Arg-Hyp-Pro-Gly-Thi-Ser-DPhe-Thi-Arg] (H-R[Hyp]PG[2Thi]S[dF][2Thi]R-OH) | 5.6 | – | – |
| Arg-Pro-Pro-Gly-Phe-Ser-DPal-Phe-Arg [Example 3] | – | – | pA2/RUT (isolated rat uterus; [2]): 5.0; pA2/GPI [1, 3]: 4.8 |
| N=C(N)NCCC[C@@H](N)C(=O)N[C@@H](CCCNC(=N)N)C(=O)N1CCC[C@H]1C(=O)N1CCC[C@@H]1C(=O)NCC(=O)N[C@@H](Cc1ccccc1)C(=O)N[C@@H](CO)C(=O)N[C@H](Cc1ccccc1)C(=O)N[C@@H](Cc1ccccc1)C(=O)N[C@@H](CCCNC(=N)N)C(=O)O [Example 11, DArg-Arg-Pro-DPro-Gly-Phe-Ser-DPhe-Phe-Arg] | 4.0 | – | RUT pA2 (isolated rat uterus): 4.6 |
| N=C(N)NCCC[C@H](NC(=O)[C@H](Cc1cccs1)NC(=O)[C@@H](Cc1ccccc1)NC(=O)[C@H](CO)NC(=O)[C@H](Cc1cccs1)NC(=O)CNC(=O)[C@@H]1CCCN1C(=O)[C@@H]1CCCN1C(=O)[C@H](CCCNC(=N)N)NC(=O)[C@H](CCCCN)NC(=O)[C@@H](N)CCCCN)C(=O)O [Example 14, Lys-Lys-Arg-Pro-Pro-Gly-Thi-Ser-DPhe-Thi-Arg] (H-KKRPPG[2Thi]S[dF][2Thi]R-OH) | 6.0 | 5.3 | – |
| Arg-Pro-Pro-Gly-Phe-DPhe-CDF-Phe-Arg [Example 5] | – | – | pA2/RUT (isolated rat uterus; [2]): 4.9; pA2/GPI [1, 3]: 5.8 |
| N=C(N)NCCC[C@H](NC(=O)[C@H](Cc1cccs1)NC(=O)[C@@H](Cc1ccccc1)NC(=O)[C@H](CO)NC(=O)[C@H](Cc1cccs1)NC(=O)CNC(=O)[C@@H]1C[C@@H](O)CN1C(=O)[C@@H]1C[C@@H](O)CN1C(=O)[C@@H](N)CCCNC(=N)N)C(=O)O [Example 22, Arg-Hyp-Hyp-Gly-Thi-Ser-DPhe-Thi-Arg] (H-R[Hyp][Hyp]G[2Thi]S[dF][2Thi]R-OH) | 6.7 | – | – |
| Arg-Pro-Pro-Gly-Thi-Ser-DPal-Thi-Arg [Example 8] | – | – | pA2/RUT (isolated rat uterus; [2]): 4.2 |
